{"source": "patent US20170342451A1", "about": "“BIOSYNTHESIS OF PACLITAXEL INTERMEDIATE” (Board of Trustees of Michigan State University, priority 2012, published 2017)", "key": {"Cinnamate-CL": {"tested_on": "Cinnamate-CL", "conditions": "cited from earlier work"}, "Benzoate-CL": {"tested_on": "Benzoate-CL", "conditions": "cited from earlier work"}, "Propionyl-CL": {"molecular_target": "Propionyl-CL (Salmonella typhimurium, UniProt P55912)", "sequence (P55912 whole entry)": "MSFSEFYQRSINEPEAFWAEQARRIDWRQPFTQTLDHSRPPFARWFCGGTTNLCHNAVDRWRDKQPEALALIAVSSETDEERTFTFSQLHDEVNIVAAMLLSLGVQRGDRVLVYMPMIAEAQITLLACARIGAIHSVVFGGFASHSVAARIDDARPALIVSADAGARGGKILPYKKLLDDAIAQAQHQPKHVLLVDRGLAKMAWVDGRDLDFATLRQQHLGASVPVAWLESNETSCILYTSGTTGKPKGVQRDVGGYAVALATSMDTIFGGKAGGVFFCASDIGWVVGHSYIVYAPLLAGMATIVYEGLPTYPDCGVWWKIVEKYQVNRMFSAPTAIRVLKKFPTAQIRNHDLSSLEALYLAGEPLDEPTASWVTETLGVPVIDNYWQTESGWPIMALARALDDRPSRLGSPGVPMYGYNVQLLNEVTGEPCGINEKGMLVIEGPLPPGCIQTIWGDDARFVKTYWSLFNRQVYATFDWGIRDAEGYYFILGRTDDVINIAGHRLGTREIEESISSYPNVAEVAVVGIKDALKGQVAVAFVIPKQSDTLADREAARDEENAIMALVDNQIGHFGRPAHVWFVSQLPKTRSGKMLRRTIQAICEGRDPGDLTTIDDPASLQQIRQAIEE", "conditions": "cited from earlier work"}, "Phenylacetate-CL": {"tested_on": "Phenylacetate-CL", "conditions": "cited from earlier work"}, "4-Chlorobenzoate-CL": {"tested_on": "4-Chlorobenzoate-CL", "conditions": "cited from earlier work"}, "bacterial CoA Ligases": {"tested_on": "bacterial CoA Ligases", "conditions": "literature range; cited from earlier work"}, "TycA": {"molecular_target": "T1, TycA (Brevibacillus parabrevis, UniProt P09095)", "T1 construct": "this wild-type tycA cDNA encoding the A-, T-, and E-domains was subcloned into a pSU18 vector; made in house; host or cells: Escherichia coli BL21(DE3)", "T1 sequence (P09095 with tags, fused parts or gaps)": "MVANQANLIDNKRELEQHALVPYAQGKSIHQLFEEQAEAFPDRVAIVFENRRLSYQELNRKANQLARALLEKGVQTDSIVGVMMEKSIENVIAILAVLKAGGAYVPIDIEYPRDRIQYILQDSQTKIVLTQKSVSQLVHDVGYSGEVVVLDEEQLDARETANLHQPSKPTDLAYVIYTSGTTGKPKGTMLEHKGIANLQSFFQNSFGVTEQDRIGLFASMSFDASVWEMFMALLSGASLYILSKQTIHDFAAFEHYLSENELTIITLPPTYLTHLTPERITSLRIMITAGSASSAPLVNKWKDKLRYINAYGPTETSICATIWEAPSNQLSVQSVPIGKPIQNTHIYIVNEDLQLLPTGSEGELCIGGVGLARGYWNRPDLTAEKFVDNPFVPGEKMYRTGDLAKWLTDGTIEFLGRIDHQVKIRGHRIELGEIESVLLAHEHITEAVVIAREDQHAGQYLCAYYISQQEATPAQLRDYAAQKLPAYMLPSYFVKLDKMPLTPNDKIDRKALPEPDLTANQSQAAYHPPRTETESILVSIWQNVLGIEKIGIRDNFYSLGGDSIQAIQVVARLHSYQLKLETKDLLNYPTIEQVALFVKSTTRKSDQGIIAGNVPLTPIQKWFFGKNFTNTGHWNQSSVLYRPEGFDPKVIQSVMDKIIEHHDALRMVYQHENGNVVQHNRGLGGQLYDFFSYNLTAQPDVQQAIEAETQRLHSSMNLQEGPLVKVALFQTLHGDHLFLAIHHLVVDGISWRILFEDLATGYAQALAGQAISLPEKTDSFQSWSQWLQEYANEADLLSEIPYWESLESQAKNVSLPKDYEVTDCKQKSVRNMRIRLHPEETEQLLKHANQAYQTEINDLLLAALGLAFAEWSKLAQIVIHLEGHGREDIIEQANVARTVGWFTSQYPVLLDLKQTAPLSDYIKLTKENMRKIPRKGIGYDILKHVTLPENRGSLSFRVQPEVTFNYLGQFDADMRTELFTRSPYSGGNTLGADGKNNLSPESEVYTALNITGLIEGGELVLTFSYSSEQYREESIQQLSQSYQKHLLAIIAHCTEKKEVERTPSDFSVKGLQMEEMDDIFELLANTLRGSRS", "experiment": "CoA ligase reaction kinetics, TycA", "format": "biochemical, Brevibacillus brevis", "procedure": "Under steady-state conditions, (S)-α-phenylalanine, (R)-β-phenylalanine, and (2R,3S)-phenylisoserine at 5, 10, 20, 40, 80, 160, 250, 500, 1000 and 2000 μM were separately incubated with TycA or TycA-S563A (20 μg) for 30 min. At the end of each reaction, and prior to mass spectrometry analysis, acetyl CoA (1 μM) was added as the internal standard to each sample to correct for variations of the analyte. The products of the enzyme-catalyzed reaction were quantified by a liquid chromatography multiple reaction monitoring (LC-ESI-MRM) mass spectrometry technique (Anderson & Hunter, Mol. Cell. Proteomics 5: 573-588 (2006)) on the Quattro-Premier Electro-Spray Mass Spectrometer coupled with Acquity® UPLC system fitted with a C18 Ascentis Express column (2.5×50 mm, 2.7 μm) at 30° C. An aliquot (5 μL) of each sample was loaded onto the column and the analytes were eluted with a solvent gradient of acetonitrile (Solvent A) in 0.05% triethylamine in distilled water (Solvent B). Elution was held at 2.5% Solvent A for 3.17 min, increased to 100% Solvent A over 5 sec with a 2-min hold, and then returned to 2.5% Solvent A over 5 sec with a 50-sec hold. The flow rate employed was 0.4 mL/min. The effluent from the chromatography column was directed to the mass spectrometer where the first quadrupole mass analyzer (in negative ion mode) was set to select for the molecular ion of a biosynthesized acyl CoA product. The selected ion was then directed to a collision gas chamber where the collision energy was optimized to maximize the abundance of a single signature fragment ion (m/z 408, characteristic of acyl CoA thioesters) resolved in the second quadrupole mass analyzer by the MRM method. The peak area under the curve of fragment ion m/z 408 for each biosynthetic phenylpropionyl CoA thioester was converted to concentration by comparing the peak area of the same ion produced by authentic CoA (at 0.05, 0.1, 0.2, 0.4, 0.8, 1.6, 3.2, 6.4, 12.5, 25, 50, 100 μM) using linear regression analysis.\nThe KM values of TycA and TycA-S563A for CoA were assessed by incubating each enzyme separately with (S)-α-phenylalanine (1 mM), MgCl2 (3 mM), ATP (1 mM), and CoA at 0.05, 0.1, 0.2, 0.4, 0.8, 1.6, 3.2, 6.4, 12.8 and 25.6 mM at 31° C. for 20 min. At the end of each reaction and prior to mass spectrometry analysis, acetyl CoA (1 μM) was added as the internal standard to each sample to correct for variations of the analyte. The products of the enzyme-catalyzed reaction were quantified by LC-ESI-MRM, and the monitored fragment ion (m/z 408) derived from the CoA moiety of the thioester analytes in the effluent was quantified identically to the procedure described earlier herein."}, "[1]": {"tested_on": "CC(C)(COP(=O)(O)OP(=O)(O)OC[C@H]1O[C@@H](n2cnc3c(N)ncnc32)[C@H](O)[C@@H]1OP(=O)(O)O)[C@@H](O)C(=O)NCCC(=O)NCCS", "experiment": "purified protein, by the assay type", "conditions": "other: TycA-S563A, CoA 1 mM, ATP 1 mM, MgCl2 3 mM, 31° C., CoA with (S)-α-Phe as cosubstrate, pH 8.0", "protocol": "At the end of each reaction, and prior to mass spectrometry analysis, acetyl CoA (1 μM) was added as the internal standard to each sample to correct for variations of the analyte. The products of the enzyme-catalyzed reaction were quantified by a liquid chromatography multiple reaction monitoring (LC-ESI-MRM) mass spectrometry technique (Anderson & Hunter, Mol. Cell. Proteomics 5: 573-588 (2006)) on the Quattro-Premier Electro-Spray Mass Spectrometer coupled with Acquity® UPLC system fitted with a C18 Ascentis Express column (2.5×50 mm, 2.7 μm) at 30° C. An aliquot (5 μL) of each sample was loaded onto the column and the analytes were eluted with a solvent gradient of acetonitrile (Solvent A) in 0.05% triethylamine in distilled water (Solvent B). Elution was held at 2.5% Solvent A for 3.17 min, increased to 100% Solvent A over 5 sec with a 2-min hold, and then returned to 2.5% Solvent A over 5 sec with a 50-sec hold. The flow rate employed was 0.4 mL/min. The effluent from the chromatography column was directed to the mass spectrometer where the first quadrupole mass analyzer (in negative ion mode) was set to select for the molecular ion of a biosynthesized acyl CoA product. The selected ion was then directed to a collision gas chamber where the collision energy was optimized to maximize the abundance of a single signature fragment ion (m/z 408, characteristic of acyl CoA thioesters) resolved in the second quadrupole mass analyzer by the MRM method. The peak area under the curve of fragment ion m/z 408 for each biosynthetic phenylpropionyl CoA thioester was converted to concentration by comparing the peak area of the same ion produced by authentic CoA (at 0.05, 0.1, 0.2, 0.4, 0.8, 1.6, 3.2, 6.4, 12.5, 25, 50, 100 μM) using linear regression analysis. The initial velocity (vo) of (S)-α-phenylalanyl-CoA, (R)-β-phenylalanyl-CoA and (2R,3S)-phenylisoserinyl-CoA made in separate assays was plotted against substrate concentration and fit by non-linear regression to the Michaelis-Menten equation (R^2 was typically between 0.90 and 0.99) to calculate the Michaelis parameters (KM and kcat).\nThe KM values of TycA and TycA-S563A for CoA were assessed by incubating each enzyme separately with (S)-α-phenylalanine (1 mM), MgCl2 (3 mM), ATP (1 mM), and CoA at 0.05, 0.1, 0.2, 0.4, 0.8, 1.6, 3.2, 6.4, 12.8 and 25.6 mM at 31° C. for 20 min. At the end of each reaction and prior to mass spectrometry analysis, acetyl CoA (1 μM) was added as the internal standard to each sample to correct for variations of the analyte. The products of the enzyme-catalyzed reaction were quantified by LC-ESI-MRM, and the monitored fragment ion (m/z 408) derived from the CoA moiety of the thioester analytes in the effluent was quantified identically to the procedure described earlier herein. […]"}, "[2]": {"tested_on": "C[C@@](N)(C(=O)O)c1ccccc1", "experiment": "purified protein, by the assay type"}, "N[C@H](CC(=O)O)c1ccccc1": {"tested_on": "N[C@H](CC(=O)O)c1ccccc1", "experiment": "purified protein, by the assay type"}, "[3]": {"tested_on": "mutation of phenylacetate CoA Ligase", "conditions": "mutated enzyme; reaction to make β-Phenylpropanyl CoA; reduced from low mM; cited from earlier work"}, "[4]": {"substrate": "CC(=O)NCCS", "experiment": "N-acetylcysteamine ligase reaction kinetics, TycA", "format": "biochemical, Brevibacillus brevis", "conditions": "other: TycA with NAC; NAC with (S)-α-Phe as cosubstrate", "protocol": "The reactions were quenched by acidification to a pH of about 2 (10% formic acid in distilled water). […] The samples were analyzed on a Quattro-Premier Electro-Spray Mass Spectrometer coupled with Acquity® UPLC system fitted with a C18 Ascentis Express column (2.5×50 mm, 2.7 μm) at 30° C. An aliquot (5 μL) of each sample was loaded onto the column and the analytes were eluted with a solvent gradient of (Solvent A) in 0.05% triethylamine in distilled water (Solvent B) (held at 2.5% Solvent A for 3.17 mM, increased to 100% A over 5 sec with a 2-min hold, and then returned to 2.5% Solvent A over 5 sec with a 50-sec hold) at a flow rate of 0.4 mL/min. In brief, the effluent from the chromatography column was directed to the Quattro Premier ESI mass spectrometer, in MRM scan mode, to quantify the biosynthetic acyl SNAC products. […] A standard curve was used to convert the peak area under the curve of the monitored fragment ion to concentration for each biosynthetic phenylpropionyl SNAC.\nAuthentic (5)-α-phenylalanyl, (R/S)-β-phenylalanyl- and (2R,3S)-phenylisoserinyl-SNAC were used to construct the standard curves by correlating the peak area under the curve of the monitored ion to concentration of the standard (at 0.16, 0.32, 0.64, 1.3, 2.5, 5, 10, 20, 40, 80, 160 and 320 μM) using linear regression analysis. […]"}, "[5]": {"conditions": "other: TycA-S563A with NAC, NAC with (S)-α-Phe as cosubstrate"}, "[6]": {"conditions": "other: TycA-S563A, CoA 1 mM, ATP 1 mM, MgCl2 3 mM, 31° C., CoA with (S)-α-Phe as cosubstrate, pH 8.0"}}, "data": [{"molecule": "O=C(O)/C=C/c1ccccc1", "note": "[Cinnamate]", "values": [{"measurement": "Km", "setting": "Cinnamate-CL", "result": 190, "unit": "µM"}, {"measurement": "kcat", "setting": "Cinnamate-CL", "result": 0.475, "unit": "s⁻¹"}]}, {"molecule": "CC(C)(COP(=O)(O)OP(=O)(O)OC[C@H]1O[C@@H](n2cnc3c(N)ncnc32)[C@H](O)[C@@H]1OP(=O)(O)O)[C@@H](O)C(=O)NCCC(=O)NCCS", "note": "[CoA]", "values": [{"measurement": "Km", "setting": "Benzoate-CL", "result": 100, "unit": "µM"}, {"measurement": "Km", "setting": "Propionyl-CL", "result": 215, "unit": "µM"}, {"measurement": "kcat", "setting": "Propionyl-CL", "result": 42, "unit": "s⁻¹"}, {"measurement": "Km", "setting": "Phenylacetate-CL", "result": 940, "unit": "µM"}, {"measurement": "Km", "setting": "4-Chlorobenzoate-CL", "result": 310, "unit": "µM"}, {"measurement": "kcat", "setting": "4-Chlorobenzoate-CL", "result": 9.3, "unit": "s⁻¹"}, {"measurement": "Km", "setting": "bacterial CoA Ligases", "result": "100 to 940", "unit": "µM"}, {"measurement": "Km", "setting": "TycA; TycA, CoA 1 mM, ATP 1 mM, MgCl2 3 mM, 31° C., CoA with (S)-α-Phe as cosubstrate", "result": "1980 ± 175", "unit": "µM"}, {"measurement": "kcat^CoA", "setting": "TycA; TycA, turnover with CoA at apparent saturation, CoA with (S)-α-Phe as cosubstrate", "result": "0.0125 ± 0.00083", "unit": "s⁻¹"}, {"measurement": "higher KM of TycA compared to that of TycA-S563A", "setting": "TycA; dilution series of CoA with 1 mM (S)-α-Phe", "result": "~2.5", "unit": "fold"}]}, {"molecule": "CCC(=O)O", "note": "[propionate]", "values": [{"measurement": "Km", "setting": "Propionyl-CL", "result": 20, "unit": "µM"}, {"measurement": "kcat", "setting": "Propionyl-CL", "result": 33, "unit": "s⁻¹"}]}, {"molecule": "TycA-S563A (Brevibacillus parabrevis; S563A)", "values": [{"measurement": "Km", "setting": "[1]", "result": "804 ± 26", "unit": "µM"}, {"measurement": "kcat", "setting": "[1]", "result": "0.015 ± 0.0013", "unit": "s⁻¹"}, {"measurement": "Km", "setting": "[2]; [5]", "result": "37.8 ± 1.6", "unit": "µM"}, {"measurement": "kcat", "setting": "[2]; [5]", "result": "0.003333 ± 3.33e-05", "unit": "s⁻¹"}, {"measurement": "Km", "setting": "[2]; [6]", "result": "33.9 ± 4.0", "unit": "µM"}, {"measurement": "Km", "setting": "N[C@H](CC(=O)O)c1ccccc1; [5]", "result": "58.9 ± 6.4", "unit": "µM"}, {"measurement": "kcat", "setting": "N[C@H](CC(=O)O)c1ccccc1; [5]", "result": "0.0004 ± 1.67e-05", "unit": "s⁻¹"}, {"measurement": "Km", "setting": "N[C@H](CC(=O)O)c1ccccc1; [6]", "result": "62.3 ± 1.0", "unit": "µM"}]}, {"molecule": "O=C(O)c1ccccc1", "note": "[benzoate]", "values": [{"measurement": "Km", "setting": "Benzoate-CL", "result": 11, "unit": "µM"}, {"measurement": "kcat", "setting": "Benzoate-CL", "result": "26,000 min^−1"}]}, {"molecule": "NC(CC(=O)O)c1ccccc1", "note": "(stereo not drawn) [β-Phe]", "values": [{"measurement": "Km", "setting": "[3]", "result": 0.068, "unit": "mM"}]}, {"molecule": "TycA (Brevibacillus parabrevis) (protein, this wild-type tycA cDNA encoding the A-, T-, and E-domains was subcloned into a pSU18 vector; made in house; host or cells: Escherichia coli BL21(DE3)) MVANQANLIDNKRELEQHALVPYAQGKSIHQLFEEQAEAFPDRVAIVFENRRLSYQELNRKANQLARALLEKGVQTDSIVGVMMEKSIENVIAILAVLKAGGAYVPIDIEYPRDRIQYILQDSQTKIVLTQKSVSQLVHDVGYSGEVVVLDEEQLDARETANLHQPSKPTDLAYVIYTSGTTGKPKGTMLEHKGIANLQSFFQNSFGVTEQDRIGLFASMSFDASVWEMFMALLSGASLYILSKQTIHDFAAFEHYLSENELTIITLPPTYLTHLTPERITSLRIMITAGSASSAPLVNKWKDKLRYINAYGPTETSICATIWEAPSNQLSVQSVPIGKPIQNTHIYIVNEDLQLLPTGSEGELCIGGVGLARGYWNRPDLTAEKFVDNPFVPGEKMYRTGDLAKWLTDGTIEFLGRIDHQVKIRGHRIELGEIESVLLAHEHITEAVVIAREDQHAGQYLCAYYISQQEATPAQLRDYAAQKLPAYMLPSYFVKLDKMPLTPNDKIDRKALPEPDLTANQSQAAYHPPRTETESILVSIWQNVLGIEKIGIRDNFYSLGGDSIQAIQVVARLHSYQLKLETKDLLNYPTIEQVALFVKSTTRKSDQGIIAGNVPLTPIQKWFFGKNFTNTGHWNQSSVLYRPEGFDPKVIQSVMDKIIEHHDALRMVYQHENGNVVQHNRGLGGQLYDFFSYNLTAQPDVQQAIEAETQRLHSSMNLQEGPLVKVALFQTLHGDHLFLAIHHLVVDGISWRILFEDLATGYAQALAGQAISLPEKTDSFQSWSQWLQEYANEADLLSEIPYWESLESQAKNVSLPKDYEVTDCKQKSVRNMRIRLHPEETEQLLKHANQAYQTEINDLLLAALGLAFAEWSKLAQIVIHLEGHGREDIIEQANVARTVGWFTSQYPVLLDLKQTAPLSDYIKLTKENMRKIPRKGIGYDILKHVTLPENRGSLSFRVQPEVTFNYLGQFDADMRTELFTRSPYSGGNTLGADGKNNLSPESEVYTALNITGLIEGGELVLTFSYSSEQYREESIQQLSQSYQKHLLAIIAHCTEKKEVERTPSDFSVKGLQMEEMDDIFELLANTLRGSRS", "values": [{"measurement": "Km", "setting": "[4]", "result": "153 ± 22", "unit": "µM"}, {"measurement": "kcat", "setting": "[4]", "result": "0.0015 ± 0.000167", "unit": "s⁻¹"}]}]}
